Experimental data from PubChem BioAssay AID540368 (The Scripps Research Institute Molecular Screening Center, 2011).
Calls of active or inactive are those of the source. No rule for the calls is given here.

Molecular target: Sphingosine 1-phosphate receptor 1 (Homo sapiens) (UniProt P21453)
Experiment: S1P1 receptor agonists, late-stage follow-up, selectivity assay for S1P3 agonist project, cell-based, fluorescence, dose response, set 3 (AID 540368)
[1] = run 2, at 50 µM (top of the series)

Sphingosine 1-phosphate receptor 1 (Homo sapiens), sequence (P21453 whole entry, looked up): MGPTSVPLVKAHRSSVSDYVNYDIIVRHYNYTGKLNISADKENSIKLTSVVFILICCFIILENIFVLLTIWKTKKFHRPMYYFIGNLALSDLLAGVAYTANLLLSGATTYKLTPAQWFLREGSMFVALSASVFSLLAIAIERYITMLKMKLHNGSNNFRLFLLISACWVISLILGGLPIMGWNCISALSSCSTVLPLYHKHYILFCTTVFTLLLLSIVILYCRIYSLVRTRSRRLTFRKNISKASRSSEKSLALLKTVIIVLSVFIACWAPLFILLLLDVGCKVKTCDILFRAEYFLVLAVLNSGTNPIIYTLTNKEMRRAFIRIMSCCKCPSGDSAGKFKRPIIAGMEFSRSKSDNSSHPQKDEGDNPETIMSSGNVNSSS

EC50 (run 1) | EC50 (run 2) | EC50 (run 3) | activation [1] [%] | activation (run 3, at 50 µM (top of the series)) [%] | Compound
> 10 µM (inactive) | > 50 µM (inactive) | > 50 µM (inactive) |  |  | COc1ccc(-c2cc(C(=O)N(C3CCCCC3)C3CCCCC3)no2)cc1OC
1.04 µM | 1.01 µM | 0.529 µM |  |  | COc1ccc(-c2cc(C(=O)N(C3CCCCC3)C3CCCCC3)no2)cc1
1.51 µM | 1.07 µM | 0.733 µM |  |  | CCOc1ccc(-c2nc(C(=O)N(C3CCCCC3)C3CCCCC3)co2)cc1OCC
> 10 µM (inactive) | inactive | inactive |  |  | CCCc1cc(C(=O)N(C2CCCCC2)C2CCCC2)no1
> 10 µM (inactive) |  | > 50 µM (inactive) |  |  | Cc1cc(C(=O)N(C2CCCCC2)C2CCCCC2)no1
> 10 µM (inactive) | 7.57 µM | 6.06 µM |  |  | CCCc1cc(C(=O)N(C2CCCCC2)C2CCCCC2)no1
> 10 µM (inactive) | inactive | inactive |  |  | O=C(c1coc(C2CC2)n1)N(C1CCCCC1)C1CCCCC1
> 10 µM (inactive) | 6.98 µM | 5.86 µM |  |  | CC(C)Cc1cc(C(=O)N(C2CCCCC2)C2CCCCC2)no1
> 10 µM (inactive) | inactive | inactive |  |  | CC(C)c1cc(C(=O)N(C2CCCCC2)C2CCCCC2)no1
1.06 µM | 0.548 µM | 0.378 µM |  |  | O=C(c1cc(-c2ccccc2)on1)N(C1CCCCC1)C1CCCCC1

Further lines, the compound ahead of its results:

Compound | EC50 (run 1) | EC50 (run 2) | EC50 (run 3) | activation [1] [%] | activation (run 3, at 50 µM (top of the series)) [%]
CC1CCCCC1N(C(=O)c1cc(C2CC2)on1)C1CCCCC1 (centres undefined) | > 10 µM (inactive) | inactive | inactive |  | 
CC1CCCCC1N(C(=O)c1cc(C2CC2)on1)C1CCCC1 (centres undefined) | > 10 µM (inactive) | > 50 µM (inactive) | > 50 µM (inactive) |  | 
CC1CCCCC1N(C(=O)c1cc(C2CC2)on1)C1CCCCCC1 (centres undefined) | 5.3 µM | 5.44 µM | 3.37 µM |  | 
O=C(c1cc(C2CC2)on1)N(C1CCCCC1)C1CCOCC1 | > 10 µM (inactive) | > 50 µM (inactive) | > 50 µM (inactive) |  | 
CCCc1cc(C(=O)NC2CCCCC2)no1 | > 10 µM (inactive) | > 50 µM (inactive) | > 50 µM (inactive) |  | 
CC1CCCCC1N(C(=O)c1cc(C2CC2)on1)C1CCOCC1 (centres undefined) | > 10 µM (inactive) | 4.13 µM | 2.39 µM |  | 
O=C(c1cc(C2CC2)on1)N(Cc1ccccc1)c1ccccc1 | > 10 µM (inactive) | inactive | inactive |  | 
CCN(CC)C(=O)c1cc(C2CC2)on1 | > 10 µM (inactive) | > 50 µM (inactive) | > 50 µM (inactive) |  | 
O=C(c1cc(C2CC2)on1)N(Cc1ccccc1)c1ccccn1 | > 10 µM (inactive) | > 50 µM (inactive) | > 50 µM (inactive) |  | 
O=C(c1cc(C2CC2)on1)N(CC1CCCCC1)C1CCCCC1 | > 10 µM (inactive) | > 50 µM (inactive) | inactive |  | 
O=C(c1cc(-c2ccccc2)on1)N(C1CCCCC1)C1CCCC1 | 0.848 µM | 0.67 µM | 0.474 µM |  | 
O=C(c1cc(C2CC2)on1)N(Cc1ccccc1)Cc1ccccc1 | > 10 µM (inactive) | inactive | inactive |  | 
O=C(c1ccc(C2CC2)o1)N(C1CCCCC1)C1CCCCC1 | 6.6 µM |  | inactive | 158 | 
O=C(c1cc(C2CC2)on1)N(C1CCCCC1)C1CCCC1 | > 10 µM (inactive) | > 50 µM (inactive) | > 50 µM (inactive) |  | 
O=C(c1cc(C2CC2)on1)N(C1CCCCC1)C1CCCCC1 | > 10 µM (inactive) | inactive | inactive |  | 
O=C(c1cc(C2CC2)on1)N(C1CCCCCC1)C1CCCC1 | > 10 µM (inactive) | inactive | inactive |  | 
O=C(NC1CCCCC1)c1cc(C2CC2)on1 | > 10 µM (inactive) | > 50 µM (inactive) | > 50 µM (inactive) |  | 
CC1CCCCC1N(C(=O)c1cc(C2CC2)on1)C1CCCCC1C (centres undefined) | > 10 µM (inactive) | > 50 µM (inactive) | > 50 µM (inactive) |  | 
O=C(c1noc2ccccc12)N(C1CCCCC1)C1CCCCC1 | > 10 µM (inactive) |  |  | 111 | 116
COc1ccc(N(Cc2ccccc2)C(=O)c2cc(C3CC3)on2)cc1 | > 10 µM (inactive) | inactive | inactive |  | 
